Experimental data from patent US20250313563A1, “GLYCOGEN SYNTHASE KINASE 3 INHIBITORS AND USES THEREOF” (The Broad Institute, Inc., priority 2022, published 2025).
Read-outs that look alike come from different tables or passages of the source.

Assays:
[1] = target: GSK3b (GST-full length GSK3b) (Homo sapiens (Human), UniProt P49841); assay: GSK3b TR-FRET kinase assay; assay type: biochemical
In short: (§1)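 IC50s came from the normalized 665/615 TR-FRET ratio after Tb-anti-pSer641 antibody and streptavidin-d2 detection of phosphorylated biotin-glycogen synthase peptide (200 nM). ATP was 4 μM for GSK3α, 2 μM for GSK3b, or 1 mM; 1 nM enzyme, 100 min, ambient, pH 7.5, after 30-min compound preincubation.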

[2] = target: GSK3α (GST-full length GSK3α) (Homo sapiens (Human), UniProt P49840); assay: GSK3α TR-FRET kinase assay; assay type: biochemical
In short: as §1

[3] = 1 nM GSK3b, 2 μM ATP, 30 minute preincubation, Table 16, read-out: GSK3-B TR-FRET BIOCHEMICAL (TR-FRET)
[4] = 1 nM GSK3α, 4 μM ATP, 30 minute preincubation, Table 16, read-out: GSK3-A TR-FRET BIOCHEMICAL (TR-FRET)
[5] = 1 nM GSK3b, 2 μM ATP, 30 minute preincubation, Table 16, read-out: GSK3-B TR-FRET BIOCHEMICAL (TR-FRET), IC50
[6] = 1 nM GSK3α, 4 μM ATP, 30 minute preincubation, Table 16, read-out: GSK3-A TR-FRET BIOCHEMICAL (TR-FRET), IC50
[7] = GSK3-B (TR-FRET 1 mM ATP), GMean, IC50, 1 mM ATP, geometric mean
[8] = GSK3-A (TR-FRET 1 mM ATP), GMean, IC50, 1 mM ATP, geometric mean
[9] = read-out: GSK3-B (TR-FRET 1 mM ATP), GMean, IC50, 1 mM ATP, geometric mean
[10] = read-out: GSK3-A (TR-FRET 1 mM ATP), GMean, IC50, 1 mM ATP, geometric mean
[11] = 1 nM GSK3b, 2 μM ATP, 30 minute preincubation, read-out: GSK3-B TR-FRET BIOCHEMICAL (TR-FRET), IC50
[12] = 1 nM GSK3α, 4 μM ATP, 30 minute preincubation, read-out: GSK3-A TR-FRET BIOCHEMICAL (TR-FRET), IC50

Sequence of GSK3b (GST-full length GSK3b) (P49841 whole entry): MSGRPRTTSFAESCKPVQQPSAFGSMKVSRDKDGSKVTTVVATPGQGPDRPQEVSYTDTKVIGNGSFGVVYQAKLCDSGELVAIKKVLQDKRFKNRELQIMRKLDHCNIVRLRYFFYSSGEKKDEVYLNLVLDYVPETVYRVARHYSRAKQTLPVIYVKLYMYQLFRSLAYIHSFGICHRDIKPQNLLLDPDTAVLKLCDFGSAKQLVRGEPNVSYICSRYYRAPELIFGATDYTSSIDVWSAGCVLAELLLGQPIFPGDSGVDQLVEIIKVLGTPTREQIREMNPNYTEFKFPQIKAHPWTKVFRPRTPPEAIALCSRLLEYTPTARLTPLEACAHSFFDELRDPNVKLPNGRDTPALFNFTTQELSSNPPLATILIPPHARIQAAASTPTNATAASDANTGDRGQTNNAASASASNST
Sequence of GSK3α (GST-full length GSK3α) (P49840 whole entry): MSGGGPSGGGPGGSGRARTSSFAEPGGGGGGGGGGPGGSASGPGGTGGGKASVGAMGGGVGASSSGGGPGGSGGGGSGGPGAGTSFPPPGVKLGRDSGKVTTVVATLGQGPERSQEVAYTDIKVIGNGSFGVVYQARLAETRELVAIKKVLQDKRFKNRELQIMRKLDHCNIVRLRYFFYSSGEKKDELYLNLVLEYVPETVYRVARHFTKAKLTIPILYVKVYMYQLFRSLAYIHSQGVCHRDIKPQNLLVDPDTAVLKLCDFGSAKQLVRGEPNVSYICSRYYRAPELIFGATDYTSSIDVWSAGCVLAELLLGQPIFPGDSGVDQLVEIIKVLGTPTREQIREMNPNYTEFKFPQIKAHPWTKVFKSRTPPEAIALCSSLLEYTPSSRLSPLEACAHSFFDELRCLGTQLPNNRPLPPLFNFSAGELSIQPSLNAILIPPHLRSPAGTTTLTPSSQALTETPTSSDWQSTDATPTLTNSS

IC50 [1, 5] [nM] | IC50 [2, 6] [nM] | also measured | SMILES
 |  | IC50 [1, 3]: 100 to 1000 nM; IC50 [2, 4]: 100 to 1000 nM | Cc1nccc([C@H]2CC[C@]3(CC2)C2=C(CC(C)(C)CC2=O)Nc2n[nH]cc23)c1C [Compound 950477]
 |  | IC50 [1, 3]: ≤ 100 nM; IC50 [2, 4]: ≤ 100 nM | Cc1nccc([C@H]2CC[C@@]3(CC2)C2=C(CC(C)(C)CC2=O)Nc2n[nH]cc23)c1C [Compound 950478]
100 to 1000 | ≤ 100 |  | CCC1(c2cccc(C(F)(F)F)c2)C2=C(CCN(c3cn[nH]c3)C2=O)Nc2n[nH]cc21 (centres unmarked) [Compound 950479]
≤ 100 | ≤ 100 |  | CCC1(c2cccc(N(C)c3ncccn3)c2)C2=C(CC(C)(C)NC2=O)Nc2n[nH]c(C(F)F)c21 (centres unmarked) [Compound 950484]
1000 to 5000 | 100 to 1000 |  | CCC1(c2cccc(C(F)(F)F)c2)C2=C(CCN(c3nn(C)cc3C)C2=O)Nc2n[nH]cc21 (centres unmarked) [Compound 950486]
100 to 1000 | 100 to 1000 |  | CC[C@]1(c2cccc(C(C)C)c2)C2=C(CC(C)(C)NC2=O)Nc2n[nH]c(C(F)(F)F)c21 [Compound 950493]
100 to 1000 | ≤ 100 |  | CC[C@]1(c2cccc(-c3cnn(C)c3F)c2)C2=C(CC(C)(C)NC2=O)Nc2n[nH]cc21 [Compound 950562]
100 to 1000 | ≤ 100 |  | CC[C@]1(c2cccc(-c3cnn4c3CC(C)(C)CC4)c2)C2=C(CC(C)(C)NC2=O)Nc2n[nH]cc21 [Compound 950564]
1000 to 5000 | 100 to 1000 |  | CCC1(c2cccc(C(F)(F)F)c2)C2=C(CCN(c3cc(C)n(C)n3)C2=O)Nc2n[nH]cc21 (centres unmarked) [Compound 950608]
1000 to 5000 | ≤ 100 |  | CCC1(c2cccc(C(F)(F)F)c2)C2=C(CCN(c3cnn(C)c3C)C2=O)Nc2n[nH]cc21 (centres unmarked) [Compound 950612]
100 to 1000 | ≤ 100 |  | CCC1(c2cccc(C(F)(F)F)c2)C2=C(CCN(c3cccs3)C2=O)Nc2n[nH]cc21 (centres unmarked) [Compound 950614]
100 to 1000 | ≤ 100 |  | CCC1(c2cccc(Oc3ncccn3)c2)C2=C(CC(C)(C)NC2=O)Nc2n[nH]c(F)c21 (centres unmarked) [Compound 950615]
100 to 1000 | ≤ 100 |  | CCC1(c2cccc(C(F)(F)F)c2)C2=C(CCN(c3ccsc3)C2=O)Nc2n[nH]cc21 (centres unmarked) [Compound 950776]
100 to 1000 | ≤ 100 |  | CCC1(c2cccc(-c3cn(C)nc3C)c2)C2=C(CC3(CCS(=O)(=O)CC3)NC2=O)Nc2n[nH]cc21 (centres unmarked) [Compound 950813]
 |  | IC50 [1, 3]: ≤ 100 nM; IC50 [2, 4]: ≤ 100 nM | CC1(C)CC(=O)C2=C(Nc3n[nH]cc3C23CCN(S(=O)(=O)C2CC2)CC3)C1F (centres unmarked) [Compound 950814]
1000 to 5000 | 100 to 1000 |  | CCC1(c2cccc(-c3c(C)nnn3C)c2)C2=C(CC(C)(C)C2=O)Nc2n[nH]cc21 (centres unmarked) [Compound 950815]
> 5000 | > 5000 |  | CC[C@]1(c2cccc(C3CC3)c2)C2=C(CC(C)(C)NC2=O)Nc2n[nH]cc21 [Compound 950817]
1000 to 5000 | 100 to 1000 |  | CCC1(c2cccc(-c3cc(C)nn3C)c2)C2=C(CC(C)(C)C2=O)Nc2n[nH]cc21 (centres unmarked) [Compound 950818]
1000 to 5000 | 100 to 1000 |  | CC[C@@]1(c2cccc(-c3cnn(C)c3)c2)C2=C(CC(C)(C)C2=O)Nc2n[nH]cc21 [Compound 950819]
100 to 1000 | 100 to 1000 |  | CC[C@]1(c2cccc(-c3ccnn3-c3ccc(F)cc3)c2)C2=C(CC(C)(C)NC2=O)Nc2n[nH]cc21 [Compound 950822]
≤ 100 | ≤ 100 | IC50 [1, 7]: 100 to 1000 nM; IC50 [2, 8]: 100 to 1000 nM | CC[C@]1(c2cccc(-c3ccnn3C3CC3(F)F)c2)C2=C(CC(C)(C)NC2=O)Nc2n[nH]cc21 (some centres unmarked) [Compound 950824]
> 5000 | > 5000 |  | CCC1(c2cccc(-c3c(C)cnc4ccccc34)c2)C2=C(CC(C)(C)NC2=O)Nc2n[nH]cc21 (centres unmarked) [Compound 950825]
> 5000 | > 5000 |  | CCC1(c2cccc(-c3cnn(C)c3)c2)C2=C(CC(C)(C)C2=O)Nc2n[nH]cc21 (centres unmarked) [Compound 950826]
> 5000 | > 5000 |  | CC[C@@]1(c2cccc(-c3cc(C)nn3C)c2)C2=C(CC(C)(C)C2=O)Nc2n[nH]cc21 [Compound 950827]

IC50 [1, 5] [nM] | IC50 [2, 6] [nM] | also measured | SMILES
100 to 1000 | ≤ 100 | IC50 [1, 9]: > 5000 nM; IC50 [2, 10]: 1000 to 5000 nM | CC[C@]1(c2cccc(C3CC3)c2)C2=C(CC(C)(C)NC2=O)Nc2n[nH]cc21 [Compound 950828]
100 to 1000 | ≤ 100 |  | CC[C@]1(c2cccc(-c3cnn4cccnc34)c2)C2=C(CC(C)(C)NC2=O)Nc2n[nH]cc21 [Compound 950830]
100 to 1000 | ≤ 100 |  | CC[C@@]1(c2cccc(C(F)(F)F)c2)C2=C(CCC2=O)Nc2n[nH]cc21 [Compound 951565]
> 5000 | > 5000 |  | CC[C@]1(c2cccc(N(C)c3ncccn3)c2)C2=C(CC(C)(C)NC2=O)Nc2n[nH]c(Cl)c21 [Compound 951592]
> 5000 | 100 to 1000 |  | CCC1(c2cccc(C(F)(F)F)c2)C2=C(CCN(c3ncn(C)c3C)C2=O)Nc2n[nH]cc21 (centres unmarked) [Compound 951598]
100 to 1000 | 100 to 1000 |  | CCC1(c2cccc(-c3ccncc3F)c2)C2=C(CC(C)(C)NC2=O)Nc2n[nH]c(C(F)F)c21 (centres unmarked) [Compound 951599]
100 to 1000 | ≤ 100 |  | CCC1(c2cccc(Oc3ncccn3)c2)C2=C(CC(C)(C)CC2=O)Nc2n[nH]c(C(F)(F)F)c21 (centres unmarked) [Compound 951604]
> 5000 | 1000 to 5000 |  | CC[C@@]1(c2cccc(Oc3ncccn3)c2)C2=C(CC(C)(C)NC2=O)Nc2n[nH]c(Cl)c21 [Compound 951605]
≤ 100 | ≤ 100 | IC50 [1, 9]: 100 to 1000 nM; IC50 [2, 10]: ≤ 100 nM | CC[C@]1(c2cccc(Oc3ncccn3)c2)C2=C(CC(C)(C)NC2=O)Nc2n[nH]c(C(F)(F)F)c21 [Compound 951607]
≤ 100 | ≤ 100 | IC50 [1, 9]: 1000 to 5000 nM; IC50 [2, 10]: 100 to 1000 nM | CC[C@]1(c2cccc(-c3ccncc3F)c2)C2=C(CC(C)(C)NC2=O)Nc2n[nH]c(C(F)F)c21 [Compound 951612]
1000 to 5000 | 100 to 1000 |  | CC[C@@]1(c2cccc(N(C)c3ncccn3)c2)C2=C(CC(C)(C)NC2=O)Nc2n[nH]c(Cl)c21 [Compound 951618]
 |  | IC50 [1, 11]: ≤ 100 nM; IC50 [1, 7]: 1000 to 5000 nM; IC50 [2, 12]: ≤ 100 nM; IC50 [2, 8]: 100 to 1000 nM | CC(C)S(=O)(=O)N1CCC2(CC1)C1=C(Nc3n[nH]cc32)[C@H](F)C(C)(C)CC1=O [Compound 951701]
100 to 1000 | ≤ 100 | IC50 [1, 9]: > 5000 nM; IC50 [2, 10]: 100 to 1000 nM | CCC1(c2cccc(-c3cn(C)nc3C)c2)C2=C(CC(C)(C)C2=O)Nc2n[nH]cc21 (centres unmarked) [Compound 951702]
 |  | IC50 [1, 3]: ≤ 100 nM; IC50 [1, 7]: 1000 to 5000 nM; IC50 [2, 4]: ≤ 100 nM; IC50 [2, 8]: 100 to 1000 nM | CC1(C)CC(=O)C2=C(Nc3n[nH]cc3C23CCN(S(=O)(=O)c2cccc(C(F)(F)F)c2)CC3)[C@@H]1F [Compound 951703]
 |  | IC50 [1, 3]: ≤ 100 nM; IC50 [2, 4]: ≤ 100 nM | CC1(C)CC(=O)C2=C(Nc3n[nH]cc3C23CCCCC3)[C@@H]1F [Compound 951705]
≤ 100 | ≤ 100 |  | CC[C@]1(c2cccc(-c3cn(C)nc3C3CC3)c2)C2=C(CC(C)(C)NC2=O)Nc2n[nH]cc21 [Compound 951706]
1000 to 5000 | 100 to 1000 |  | CC[C@]1(c2cccc(-c3cnn(C4CCCCC4)c3)c2)C2=C(CC(C)(C)NC2=O)Nc2n[nH]cc21 [Compound 951707]
 |  | IC50 [1, 3]: 100 to 1000 nM; IC50 [2, 4]: ≤ 100 nM | Cn1ccc(S(=O)(=O)N2CCC3(CC2)C2=C(Nc4n[nH]cc43)[C@@H](F)C(C)(C)CC2=O)n1 [Compound 951708]
 |  | IC50 [1, 3]: 100 to 1000 nM; IC50 [2, 4]: ≤ 100 nM | Cn1ccc(S(=O)(=O)N2CCC3(CC2)C2=C(Nc4n[nH]cc43)[C@H](F)C(C)(C)CC2=O)n1 [Compound 951709]
> 5000 | > 5000 |  | CC[C@@]1(c2cccc(-c3cn(C)nc3C)c2)C2=C(CC(C)(C)C2=O)Nc2n[nH]cc21 [Compound 951710]
 |  | IC50 [1, 3]: ≤ 100 nM; IC50 [2, 4]: ≤ 100 nM | CC1(C)CC(=O)C2=C(Nc3n[nH]cc3C23CCCCC3)[C@H]1F [Compound 951711]
 |  | IC50 [1, 3]: ≤ 100 nM; IC50 [1, 7]: 1000 to 5000 nM; IC50 [2, 4]: ≤ 100 nM; IC50 [2, 8]: 100 to 1000 nM | CC1(C)CC(=O)C2=C(Nc3n[nH]cc3C23CCN(S(=O)(=O)c2cccc(C(F)(F)F)c2)CC3)[C@H]1F [Compound 951713]
 |  | IC50 [1, 11]: ≤ 100 nM; IC50 [1, 7]: 100 to 1000 nM; IC50 [2, 12]: ≤ 100 nM; IC50 [2, 8]: 100 to 1000 nM | CC(C)S(=O)(=O)N1CCC2(CC1)C1=C(Nc3n[nH]cc32)[C@@H](F)C(C)(C)CC1=O [Compound 951714]
 |  | IC50 [1, 11]: ≤ 100 nM; IC50 [1, 7]: 100 to 1000 nM; IC50 [2, 12]: ≤ 100 nM; IC50 [2, 8]: ≤ 100 nM | CC1(C)CC(=O)C2=C(C1)Nc1n[nH]cc1[C@]21CCN(S(=O)(=O)CC2CC2)C1 [Compound 951723]
